Experimental data reported in BindingDB's records for patent US20240025899 (Shanghai De Novo Pharmatech, 2024).

Target: T1, Serine/threonine-protein kinase ATR [14-953] (Homo sapiens, UniProt Q13535)
T1 construct: 14-953
Experiment: ATR Enzyme Assay
Method: In this experiment, the phosphorylation level of substrate protein P53 (Eurofins, 14-952) was detected by HTRF technology to measure the activity of ATR/ATRIP (Eurofins, 14-953) kinase. Reaction buffer (25 mM HEPES pH 8.0, 0.01% Brij-35, 1% Glycerol, 5 mM DTT, 1 mg/mL BSA), termination buffer (12.5 mM HEPES pH 8.0, 0.005% Brij-35, 0.5% Glycerol, 250 mM EDTA) and assay buffer (50 mM HEPES pH 7.0, 150 mM NaCl, 267 mM KF, 0.1% sodium cholate, 0.01% Tween 20) were prepared in advance. ATR/ATRIP was diluted with reaction buffer to a working solution of 2 ng/μL, and the substrate protein P53 was diluted with reaction buffer to a working solution of 80 nM, and […] (Sigma, A2383) working solution (containing 40 mM MnCl2) was prepared with reaction buffer. The compound was 3-fold diluted with DMSO, then diluted with reaction buffer into a working solution, then added to a 384-well plate at 2.5 μL/well, and centrifuged at 1500 rpm for 40 s. Then 2.5 μL of ATR/ATRIP working solution, P53 working solution and ATP working solution were added into the 384-well plate, centrifuged at 1500 rpm for 40 s and reacted at room temperature for 30 minutes.

T1 sequence (Q13535 14-953): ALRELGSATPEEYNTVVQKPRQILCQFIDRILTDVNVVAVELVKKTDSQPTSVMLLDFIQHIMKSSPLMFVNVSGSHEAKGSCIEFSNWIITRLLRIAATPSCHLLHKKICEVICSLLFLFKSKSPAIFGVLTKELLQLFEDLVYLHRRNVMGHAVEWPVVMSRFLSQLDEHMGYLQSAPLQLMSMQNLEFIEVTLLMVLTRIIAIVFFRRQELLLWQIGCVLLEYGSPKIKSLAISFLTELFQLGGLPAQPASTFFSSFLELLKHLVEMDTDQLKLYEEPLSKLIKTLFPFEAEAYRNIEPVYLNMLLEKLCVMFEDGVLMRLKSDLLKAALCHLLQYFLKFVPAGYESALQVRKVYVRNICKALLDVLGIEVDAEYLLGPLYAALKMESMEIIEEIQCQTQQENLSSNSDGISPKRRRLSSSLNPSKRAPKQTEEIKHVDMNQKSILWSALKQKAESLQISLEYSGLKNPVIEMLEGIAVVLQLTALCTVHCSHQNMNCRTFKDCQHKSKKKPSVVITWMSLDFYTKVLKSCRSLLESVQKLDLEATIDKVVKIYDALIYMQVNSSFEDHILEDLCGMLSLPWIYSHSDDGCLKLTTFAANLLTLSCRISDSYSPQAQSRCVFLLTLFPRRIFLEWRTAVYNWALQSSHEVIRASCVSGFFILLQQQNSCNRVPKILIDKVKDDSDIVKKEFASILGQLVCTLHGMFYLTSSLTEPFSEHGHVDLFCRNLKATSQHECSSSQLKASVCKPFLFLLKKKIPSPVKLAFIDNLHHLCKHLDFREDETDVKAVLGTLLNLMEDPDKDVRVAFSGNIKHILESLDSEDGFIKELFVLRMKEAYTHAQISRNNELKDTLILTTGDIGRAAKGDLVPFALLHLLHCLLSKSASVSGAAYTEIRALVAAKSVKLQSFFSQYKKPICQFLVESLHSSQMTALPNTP

IC50 [nM]	Structure (SMILES)
6.5	C[C@@H]1COCCN1c1nc2c(cnn2-c2cc[nH]n2)c2c1CCN2S(N)(=O)=O [US20240025899, Compound 5]
14	C[C@@H]1COCCN1c1nc2c(cnn2-c2cc[nH]n2)c2c1CCN2C [US20240025899, Compound 12]
